Source: article PMC6015222, “Targeting Phosphopeptide Recognition by the Human BRCA1 Tandem BRCT Domain to Interrupt BRCA1-Dependent Signaling” (Cell Chemical Biology, 2018)
“Also recorded” adds a separate entry of the source.

Tests used:
[1] = tested on: BRCA1 foci; assay: Radiation-induced nuclear BRCA1 foci, high-content imaging, HEK293 cells; assay type: cell-based, human; conditions: 100 μM added 6 hr after 16 Gy, staining 18 hr after irradiation
Method: HEK293 cells stably harboring plasmids for Tet-inducible expression of tBRCT domains were seeded at 30,000 cells/well on Matrigel-coated 96-well plates, and treated as indicated. Cells were fixed in 2.5% PFA, for 20’ at RT and incubated in 1x PBS with 10% FBS plus 0.5% TritonX-100 for 1 h for blocking and permeabilization. Primary antibody staining was performed at the indicated dilutions in PBST-BSA buffer (0.7mg/ml BSA, 0.05% Tween-20 in 1XPBS) for 1h at RT. Cells were then extensively washed in PBST-BSA buffer and stained with goat-anti-mouse Alexa 488 secondary antibody (Invitrogen), at 1:1000 dilution along with 2.5μg/ml DAPI for nuclear staining. […] Images were acquired on a high-content imaging platform (Cellomics ArrayScan VTI HCS Reader (Thermo Fisher Scientific)) using a 40x objective. On average ∼800 fields from 6-well replicates, containing a total of ∼10-20K cells were imaged per treatment group and quantified using image analysis software (in-house algorithms using MatLab and commercially available HCS studio 2.0 from Thermo Fisher Scientific). […] Cut-off values for foci number per cell specifying the maximal difference between control and irradiated samples were determined to calculate the percentage of cells positive for radiation-induced foci. […]

[2] = tested on: TOPBP1 foci; assay: Radiation-induced TOPBP1 foci, U2OS cells; assay type: cell-based; conditions: 100 μM added 6 h after irradiation
[3] = biological target: T1, BRCA1 tBRCT / BACH1 unimolecular FRET biosensor (Homo sapiens, UniProt P38398); assay: Unimolecular FRET biosensor assay in HEK293 cells (sensitized emission, acceptor photobleaching); assay type: cell-based; conditions: 100 μM, 24 hr, 16 Gy
T1 construct: the BRCA1 tBRCT domain (aa 1643-1862); expressed in transfected cells
T1 sequence (P38398 1643-1862): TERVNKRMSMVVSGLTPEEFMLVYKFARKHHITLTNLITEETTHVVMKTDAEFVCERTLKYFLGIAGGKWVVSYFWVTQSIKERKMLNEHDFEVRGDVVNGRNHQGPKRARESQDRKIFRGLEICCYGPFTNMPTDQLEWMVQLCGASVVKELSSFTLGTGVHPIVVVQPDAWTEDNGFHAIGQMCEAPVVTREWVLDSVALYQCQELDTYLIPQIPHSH
Method: HEK293 cells expressing the stably integrated FRET sensor in a tetracycline-inducible system were used. 3.5x10^5 cells/35mm dish were seeded in Matrigel coated plates and expression was induced using doxycycline (1μg/ml) for 48 h. Cells were incubated with compounds for 24 h in serum containing media at 100μM final concentration with 0.5% DMSO. Where indicated, mCherry-BRCA1 tBRCT constructs were transiently transfected in a 4.5:1 ratio of Fugene:DNA and incubated in serum-containing media for 24 h (Fugene HD transfection reagent, Promega). Two h after 16 Gy IR, cells were washed in 1x PBS (pH 7.4) and fixed in 4% PFA at room temperature (RT) for 10’. Cells were mounted with Mowiol (without anti-fade) before imaging. The following excitation and emission wavelengths were used: Ex 402nm / Em 457nm for Tag-BFP; Ex 483nm / Em 506nm for Tag-GFP2 and Ex 594nm / Em 610nm for mCherry. […] Images acquired as noted below were quantified using HCS studio 2.0 (Thermo Fisher Scientific) to define nuclear morphology and average nuclear intensities.
For sensitized emission FRET measurements, images were acquired using a Zeiss epifluorescence microscope with Apotome using a 40x oil objective. […] Corrections for the extent of spectral cross-talk were calculated and applied as follows ([Müller et al., 2013]). […]

## O=C(c1ccc2nc(-c3ccccc3)[nH]c2c1)N1CCN(Cc2ccccc2F)CC1 [Bractoppin, (4-(2-fluorobenzyl)piperazin-1-yl) (2-phenyl-1H-benzo[d]imidazol-6-yl) methanone]
[1]
  effect on formation of radiation-induced BRCA1 foci: inhibits the formation of radiation-induced BRCA1 foci; also recorded: selectively inhibits damage-induced BRCA1 foci formation
[2]
  effect on radiation-induced recruitment of TOPBP1: little effect
[3]
  effect on FRET efficiency of the biosensor: inhibits FRET
